From US5663194A, “Chroman-2-ylmethylamino derivatives” (priority 1996, dated 1997)

What was measured:
α1 = experiment: α1; type: binding
[1] = molecular target: T1, dopamine autoreceptor (D2) (Rattus norvegicus, UniProt P61169); experiment: Affinity for the dopamine autoreceptor: 3H-quinpirole (Quin.) binding in homogenized rat striatal brain tissue
T1 construct: homogenized rat striatal brain tissue is incubated with; from tissue; host or cells: rat striatal brain tissue, homogenized

5-HT1a = molecular target: T2, 5-HT1a (Homo sapiens, UniProt P08908); experiment: 5-HT1a; type: binding
T2 sequence (P08908 1-422): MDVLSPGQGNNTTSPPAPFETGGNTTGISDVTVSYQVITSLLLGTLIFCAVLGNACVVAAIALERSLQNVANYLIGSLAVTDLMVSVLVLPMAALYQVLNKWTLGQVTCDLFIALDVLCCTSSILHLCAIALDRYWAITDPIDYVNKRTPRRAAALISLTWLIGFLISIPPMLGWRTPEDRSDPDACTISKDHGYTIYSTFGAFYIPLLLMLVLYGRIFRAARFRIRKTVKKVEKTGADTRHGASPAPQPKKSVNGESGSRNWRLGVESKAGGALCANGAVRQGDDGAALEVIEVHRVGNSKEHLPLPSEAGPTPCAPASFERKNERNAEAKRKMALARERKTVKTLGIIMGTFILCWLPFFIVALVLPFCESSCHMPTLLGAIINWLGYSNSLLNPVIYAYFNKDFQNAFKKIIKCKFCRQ

dopamine D-2 receptor = molecular target: T3, dopamine D-2 receptor (Rattus norvegicus, UniProt P61169); experiment: Affinity for the dopamine D-2 receptor: 3H-spiroperidol (Spiper.) binding in homogenized limbic brain tissue; details: read-out: IC50 D2 Spiper.
T3 construct: homogenized limbic brain tissue is incubated with; from tissue; host or cells: limbic brain tissue, homogenized
T3 sequence (P61169 whole entry): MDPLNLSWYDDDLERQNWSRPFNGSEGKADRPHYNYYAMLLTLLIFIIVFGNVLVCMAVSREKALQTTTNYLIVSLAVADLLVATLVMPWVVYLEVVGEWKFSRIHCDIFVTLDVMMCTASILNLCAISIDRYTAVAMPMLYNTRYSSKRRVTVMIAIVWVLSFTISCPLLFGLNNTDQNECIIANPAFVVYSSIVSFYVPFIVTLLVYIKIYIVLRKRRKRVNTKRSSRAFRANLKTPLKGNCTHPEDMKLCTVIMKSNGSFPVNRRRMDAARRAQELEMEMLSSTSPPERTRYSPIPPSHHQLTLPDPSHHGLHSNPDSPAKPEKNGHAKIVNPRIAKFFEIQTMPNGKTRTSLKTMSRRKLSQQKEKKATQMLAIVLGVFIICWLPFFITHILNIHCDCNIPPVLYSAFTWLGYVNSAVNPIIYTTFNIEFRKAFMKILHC

T1 sequence (P61169 whole entry): as above

Row | SMILES | IC50 (α1) | IC50 [1] | IC50 (5-HT1a) | IC50 (dopamine D-2 receptor)
1 | CCCNCC1CCc2ccc(NS(C)(=O)=O)cc2O1 (centres unmarked) [Example 1c, N-(2-Propylaminomethyl-chroman-7-yl)-methanesulfonamide] | 1.42 µM | 0.184 µM | 0.218 µM | 4.86 µM
2 | c1ccc(CNCC2CCc3ccccc3O2)cc1 (centres unmarked) [reference compound] | 0.63 µM |  |  | 
